# Measured values reported in PubChem BioAssay (NCI).
#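 Method: 48-hour compound exposure of cells in 96-well plates, five concentrations, linear interpolation of endpoints. Definition used: TGI = concentration required for complete inhibition of growth.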
# Columns and labels:
# Assay in all cases: NCI tumour cell line growth inhibition, 48 h
# HCT-116 colon = system: HCT-116 colon
# SNB-19 CNS = system: SNB-19 CNS
# NCI-H460 lung = system: NCI-H460 lung
# M14 melanoma = system: M14 melanoma
# SK-OV-3 ovarian = system: SK-OV-3 ovarian
# T-47D breast = system: T-47D breast
# M19-MEL melanoma = system: M19-MEL melanoma
# OVCAR-8 ovarian = system: OVCAR-8 ovarian
# U251 CNS = system: U251 CNS
# RXF 393 renal = system: RXF 393 renal
# HCC-2998 colon = system: HCC-2998 colon
# KM12 colon = system: KM12 colon
# TK-10 renal = system: TK-10 renal
# KM20L2 colon = system: KM20L2 colon
# DMS 273 small cell lung = system: DMS 273 small cell lung
# IGROV1 ovarian = system: IGROV1 ovarian
# MCF7 breast = system: MCF7 breast
# SN12C renal = system: SN12C renal
# CAKI-1 renal = system: CAKI-1 renal
# RPMI-8226 leukemia = system: RPMI-8226 leukemia
# NCI-H23 lung = system: NCI-H23 lung
# DMS 114 small cell lung = system: DMS 114 small cell lung
# SF-295 CNS = system: SF-295 CNS
# HS 578T breast = system: HS 578T breast
# COLO 205 colon = system: COLO 205 colon
# SNB-78 CNS = system: SNB-78 CNS
# SW-620 colon = system: SW-620 colon
# EKVX NSCLC = system: EKVX NSCLC
# MALME-3M melanoma = system: MALME-3M melanoma
# HOP-92 NSCLC = system: HOP-92 NSCLC
# DLD-1 colon = system: DLD-1 colon
# BT-549 breast = system: BT-549 breast
# OVCAR-3 ovarian = system: OVCAR-3 ovarian
# XF 498 CNS = system: XF 498 CNS
# UACC-62 melanoma = system: UACC-62 melanoma
# A549 NSCLC = system: A549 NSCLC
# SF-268 CNS = system: SF-268 CNS
# OVCAR-5 ovarian = system: OVCAR-5 ovarian
# HOP-18 NSCLC = system: HOP-18 NSCLC
# LXFL 529 NSCLC = system: LXFL 529 NSCLC
# NCI-H226 lung = system: NCI-H226 lung
# NCI/ADR-RES ovarian = system: NCI/ADR-RES ovarian
# HT29 colon = system: HT29 colon
# SK-MEL-5 melanoma = system: SK-MEL-5 melanoma
# NCI-H522 lung = system: NCI-H522 lung
# HL-60(TB) leukemia = system: HL-60(TB) leukemia
# MDA-MB-231 breast = system: MDA-MB-231 breast
# LOX IMVI melanoma = system: LOX IMVI melanoma
# K-562 leukemia = system: K-562 leukemia
# 786-0 renal = system: 786-0 renal
# ACHN renal = system: ACHN renal
# CCRF-CEM leukemia = system: CCRF-CEM leukemia
# UACC-257 melanoma = system: UACC-257 melanoma
# SR leukemia = system: SR leukemia
# SK-MEL-2 melanoma = system: SK-MEL-2 melanoma
# MOLT-4 leukemia = system: MOLT-4 leukemia
# HOP-62 NSCLC = system: HOP-62 NSCLC
# PC-3 prostate = system: PC-3 prostate
# DU-145 prostate = system: DU-145 prostate
# A498 renal = system: A498 renal
# MDA-MB-435 = system: MDA-MB-435
# MDA-N = system: MDA-N
# SF-539 CNS = system: SF-539 CNS
# SNB-75 CNS = system: SNB-75 CNS
# RXF-631 renal = system: RXF-631 renal
# HCT-15 colon = system: HCT-15 colon
# OVCAR-4 ovarian = system: OVCAR-4 ovarian
# SK-MEL-28 melanoma = system: SK-MEL-28 melanoma
# UO-31 renal = system: UO-31 renal
# SN12K1 renal = system: SN12K1 renal
# P388/ADR leukemia = system: P388/ADR leukemia
# P388 leukemia = system: P388 leukemia
smiles,measurement,setting,value
COc1ccc(NC(=O)CC(=O)n2nc(-c3ccccc3)c(N=Nc3ccc(C)cc3)c2-c2ccccc2)cc1,TGI,HCT-116 colon,> 71 µM
same,TGI,SNB-19 CNS,49.4 µM
same,TGI,NCI-H460 lung,66.3 µM
same,TGI,M14 melanoma,> 100 µM
same,TGI,SK-OV-3 ovarian,40 µM
same,TGI,T-47D breast,> 75 µM
same,TGI,M19-MEL melanoma,> 100 µM
same,TGI,OVCAR-8 ovarian,63.3 µM
same,TGI,U251 CNS,47.5 µM
same,TGI,RXF 393 renal,46.4 µM
same,TGI,HCC-2998 colon,> 100 µM
same,TGI,KM12 colon,> 100 µM
same,TGI,TK-10 renal,55.1 µM
same,TGI,KM20L2 colon,> 100 µM
same,TGI,DMS 273 small cell lung,> 100 µM
same,TGI,IGROV1 ovarian,49.9 µM
same,TGI,MCF7 breast,> 85.2 µM
same,TGI,SN12C renal,81.9 µM
same,TGI,CAKI-1 renal,> 100 µM
same,TGI,RPMI-8226 leukemia,> 100 µM
same,TGI,NCI-H23 lung,54 µM
same,TGI,DMS 114 small cell lung,> 80.1 µM
same,TGI,SF-295 CNS,52.2 µM
same,TGI,HS 578T breast,60.7 µM
same,TGI,COLO 205 colon,> 100 µM
same,TGI,SNB-78 CNS,61.2 µM
same,TGI,SW-620 colon,> 100 µM
same,TGI,EKVX NSCLC,> 51.4 µM
same,TGI,MALME-3M melanoma,70.3 µM
same,TGI,HOP-92 NSCLC,40.6 µM
same,TGI,DLD-1 colon,> 100 µM
same,TGI,BT-549 breast,> 58 µM
same,TGI,OVCAR-3 ovarian,77.2 µM
same,TGI,XF 498 CNS,24.9 µM
same,TGI,UACC-62 melanoma,49.5 µM
same,TGI,A549 NSCLC,63.3 µM
same,TGI,SF-268 CNS,53.4 µM
same,TGI,OVCAR-5 ovarian,> 100 µM
same,TGI,HOP-18 NSCLC,> 78.3 µM
same,TGI,LXFL 529 NSCLC,> 100 µM
same,TGI,NCI-H226 lung,58.3 µM
same,TGI,NCI/ADR-RES ovarian,> 61 µM
same,TGI,HT29 colon,> 100 µM
same,TGI,SK-MEL-5 melanoma,> 78.1 µM
same,TGI,NCI-H522 lung,48.3 µM
same,TGI,HL-60(TB) leukemia,> 100 µM
same,TGI,MDA-MB-231 breast,> 59.6 µM
same,TGI,LOX IMVI melanoma,> 100 µM
same,TGI,K-562 leukemia,> 100 µM
same,TGI,786-0 renal,45.6 µM
same,TGI,ACHN renal,60.9 µM
same,TGI,CCRF-CEM leukemia,> 100 µM
same,TGI,UACC-257 melanoma,> 95.8 µM
same,TGI,SR leukemia,98.3 µM
same,TGI,SK-MEL-2 melanoma,65.2 µM
same,TGI,MOLT-4 leukemia,> 100 µM
same,TGI,HOP-62 NSCLC,38.4 µM
same,TGI,PC-3 prostate,> 57.9 µM
same,TGI,DU-145 prostate,> 100 µM
same,TGI,A498 renal,> 76.5 µM
same,TGI,MDA-MB-435,> 100 µM
same,TGI,MDA-N,> 100 µM
same,TGI,SF-539 CNS,44 µM
same,TGI,SNB-75 CNS,41.2 µM
same,TGI,RXF-631 renal,> 100 µM
same,TGI,HCT-15 colon,> 100 µM
same,TGI,OVCAR-4 ovarian,53.8 µM
same,TGI,SK-MEL-28 melanoma,> 100 µM
same,TGI,UO-31 renal,55.3 µM
O=C1CCCn2c3ccccc3c3ccnc1c32,TGI,HCT-116 colon,> 100 µM
same,TGI,SNB-19 CNS,> 100 µM
same,TGI,NCI-H460 lung,> 100 µM
same,TGI,SK-OV-3 ovarian,> 100 µM
same,TGI,M19-MEL melanoma,> 100 µM
same,TGI,OVCAR-8 ovarian,> 100 µM
same,TGI,U251 CNS,> 100 µM
same,TGI,RXF 393 renal,68.8 µM
same,TGI,HCC-2998 colon,> 100 µM
same,TGI,KM12 colon,> 100 µM
same,TGI,KM20L2 colon,> 100 µM
same,TGI,DMS 273 small cell lung,> 100 µM
same,TGI,IGROV1 ovarian,> 100 µM
same,TGI,MCF7 breast,> 100 µM
same,TGI,SN12C renal,> 100 µM
same,TGI,SN12K1 renal,> 100 µM
same,TGI,CAKI-1 renal,> 46.6 µM
same,TGI,RPMI-8226 leukemia,> 100 µM
same,TGI,NCI-H23 lung,> 100 µM
same,TGI,DMS 114 small cell lung,> 100 µM
same,TGI,SF-295 CNS,> 100 µM
same,TGI,COLO 205 colon,> 100 µM
same,TGI,SNB-78 CNS,> 100 µM
same,TGI,SW-620 colon,> 100 µM
same,TGI,EKVX NSCLC,> 85.2 µM
same,TGI,MALME-3M melanoma,> 100 µM
same,TGI,HOP-92 NSCLC,> 100 µM
same,TGI,DLD-1 colon,> 100 µM
same,TGI,OVCAR-3 ovarian,> 100 µM
same,TGI,XF 498 CNS,74.5 µM
same,TGI,UACC-62 melanoma,98 µM
same,TGI,P388/ADR leukemia,> 100 µM
same,TGI,A549 NSCLC,> 100 µM
same,TGI,SF-268 CNS,> 100 µM
same,TGI,OVCAR-5 ovarian,> 100 µM
same,TGI,HOP-18 NSCLC,> 100 µM
same,TGI,NCI-H226 lung,56.4 µM
same,TGI,NCI/ADR-RES ovarian,> 100 µM
same,TGI,HT29 colon,> 56.1 µM
same,TGI,SK-MEL-5 melanoma,> 100 µM
same,TGI,NCI-H522 lung,> 100 µM
same,TGI,HL-60(TB) leukemia,23 µM
same,TGI,LOX IMVI melanoma,> 100 µM
same,TGI,K-562 leukemia,> 100 µM
same,TGI,CCRF-CEM leukemia,> 100 µM
same,TGI,UACC-257 melanoma,> 56.1 µM
same,TGI,SK-MEL-2 melanoma,> 100 µM
same,TGI,MOLT-4 leukemia,> 100 µM
same,TGI,HOP-62 NSCLC,> 100 µM
same,TGI,A498 renal,32.2 µM
same,TGI,SF-539 CNS,> 100 µM
same,TGI,SNB-75 CNS,> 100 µM
same,TGI,HCT-15 colon,> 100 µM
same,TGI,OVCAR-4 ovarian,> 100 µM
same,TGI,P388 leukemia,> 93.9 µM
same,TGI,SK-MEL-28 melanoma,> 100 µM
same,TGI,UO-31 renal,> 100 µM
